Laboratory results from patent publication US20230181602A1, “TREATMENT OF NON-ALCOHOLIC STEATOHEPATITIS (NASH)” (DURECT CORPORATION, priority 2020, published 2023).

Assays:
[1] = Single dose safety and pharmacokinetic study in subjects with NASH and control healthy subjects; format: in vivo, human
Protocol: The present Example was a randomized, dose ranging, single dose safety and pharmacokinetic study of 25HC3S administered to subjects with NASH and control healthy subjects. […] For each cohort, 10 subjects with NASH were enrolled which were further classified into cirrhotic and non-cirrhotic. Each subject received only one dose of study treatment. The second cohort was dosed after a review of safety and tolerability data from Cohort 1.

[2] = Tissue distribution by quantitative whole body autoradiography after single oral (gavage) dose; format: in vivo, Sprague Dawley rats; conditions: 75 mg/kg oral
[3] = Plasma pharmacokinetics after single oral (gavage) dose in rats; format: in vivo; conditions: 75 mg/kg single oral (gavage) dose
Protocol: The terminal elimination phase T1/2 was 27.3 hours.

[4] = Excretion after single oral (gavage) dose in rats; format: in vivo; conditions: 75 mg/kg single oral (gavage) dose
[5] = Plasma pharmacokinetics of radioactivity after single intravenous dose in rats; format: in vivo, Sprague Dawley rats; conditions: 10 mg/kg single intravenous (bolus) dose
Source text: (§1) The objectives of this study were to determine the plasma pharmacokinetics of [4-^14C]-25HC3S-derived radioactivity in male Sprague Dawley rats, determine the routes of elimination and excretion mass balance of [4-^14C]-25HC3 S-derived radioactivity in male Sprague Dawley rats, determine the tissue distribution and tissue pharmacokinetics of [4-^14C]-25HC3S-derived radioactivity using quantitative whole body autoradiography methods in male Sprague Dawley and Long Evans rats following a single intravenous (bolus) dose, and to provide plasma, urine, and fecal homogenate samples for metabolite profiling of [4-^14C]-25HC3 S-derived radioactivity.
(§2) Nine male Sprague Dawley rats (Group 1) were designated for the pharmacokinetic phase, 3 male Sprague Dawley rats (Group 2) for the excretion mass balance phase, and 7 male Sprague Dawley rats (Group 3) and 9 male Long Evans rats (Group 4) for the tissue distribution phase. All animals received a single intravenous dose of [^14C]-25HC3S at 10 mg/kg and a target radioactivity of 225 μCi/kg. Blood samples were collected from all Group 1 animals at approximately 0.083, 0.25, 0.5, 1, 2, 4, 8, 12, 24, 48, and 72 hours post-dose. Urine and feces were collected from all Group 2 animals periodically through 168 hours post-dose. […] Following blood collection, animals were euthanized by CO2 inhalation and carcasses frozen in a dry ice/hexane bath for processing by quantitative whole body autoradiography. Whole blood, plasma, urine, feces, cage rinse, and cage wash were analyzed for total radioactivity by liquid scintillation counting.

[6] = Tissue distribution by quantitative whole body autoradiography after single intravenous dose; format: in vivo, Sprague Dawley rats; conditions: 10 mg/kg intravenous
Source text: as §1, §2

[7] = Metabolite profiling of plasma and feces after oral dose in rats; format: in vivo; conditions: 75 mg/kg oral
Protocol: Radiolabeled components in plasma and feces extracts were profiled and identified using radio-high performance liquid chromatography (HPLC) and high performance liquid chromatography/mass spectrometry (HPLC/MS) methods.
Plasma pools were prepared for Group 1 (75 mg/kg, [^14C]-25HC3S) samples collected at 2, 4, and 6 hours post-dose. […] One metabolite M29 was identified as 25-hydroxycholesterol with 37% ROI and a concentration of 1233 ng-equiv./g.
Feces pools were prepared for Group 2 (75 mg/kg, [^14C]-25HC3S) samples collected from 0 to 24, 24 to 48, 48 to 72, 72 to 96, 96 to 120, 120 to 144, and 144 to 168 hours post-dose. A total of eleven metabolites were identified. None of the metabolites were present at ≥5% of dose. Metabolites present at 2-5% of dose were M1 (4.5% of total dose and 1%-69% ROI), M3 (4.6% of total dose and 1%-44% ROI), M4 (2.0% of total dose and 0%-10% ROI), M8 (3.1% of total dose and 1%-46% ROI), […], and M30 (3.3% of total dose and 0%-5% ROI).

Q: Which results are given for `C[C@H](CCCC(C)(C)O)[C@H]1CC[C@H]2[C@@H]3CC=C4C[C@@H](OS(=O)(=O)[O-])CC[C@]4(C)[C@H]3CC[C@]12C.[Na+]` [25HC3S sodium]?
A: difference between healthy and NASH subjects in pharmacokinetics (Cmax and AUC) ([1]; 50 mg and 200 mg): no clear difference; increase of geometric mean Cmax in NASH subjects over healthy subjects ([1]; Cohorts 1 and 2): 18-24%; increasing trends in exposure (AUC parameters) in NASH subjects ([1]; NASH versus healthy subjects): up to 31%

Q: Which results are given for `C[C@H](CCCC(C)(C)O)[C@H]1CC[C@H]2[C@@H]3CC=C4[14CH2][C@@H](OS(=O)(=O)O)CC[C@]4(C)[C@H]3CC[C@]12C` [[4-^14C]-25HC3S]?
A: plasma:whole blood AUClast ratio [2]: 1.12; skin, thymus, prostate, and pituitary tissue concentrations [2]: < 3000 ng equiv./g; tissue Tmax [2]: ≤ 6 h; tissue concentrations by 168 hours post-dose [2]: near or below the quantitation limit in all tissues except adrenal gland and liver; tissue distribution of drug and/or its metabolites [2]: broadly distributed and detected by quantitative whole body autoradiography in all tissues except the eye (lens); tissue:plasma ratio (AUClast), adrenal gland [2]: 6.64; tissue:plasma ratio (AUClast), liver [2]: 6.96; tissue:plasma ratio (AUClast), small intestine (wall) [2]: 15.4; uveal tract and brain concentrations [2]: approximately 1000 ng equiv./g; whole blood AUClast [2]: 127,000 h·ng equiv./g; plasma AUClast (radioactivity) [3]: 96,400 h·ng equiv./g; terminal elimination phase T1/2 [3]: 27.3 h; dose recovered in urine, feces, and cage rinse [4]: approximately 94.5%; recovered radioactivity in feces [4]: 94.2%; mean plasma C0 (radioactivity) [5]: 25,900 ng-equiv./g; plasma AUClast (radioactivity) [5]: 27,900 h*ng-equiv./g; terminal elimination phase T1/2, plasma [5]: 26.6 h; AUClast in liver [6]: ≤ 364,000 h·ng/g; concentrations in thymus, bone (femur), uveal tract, fat, testes, and brain (approximate) [6]: around 1500 ng-equiv./g; concentrations in thymus, bone (femur), uveal tract, fat, testes, and brain (bound) [6]: < 5000 ng-equiv./g; tissue concentrations by 168 hours postdose [6]: below quantitation limit in all tissues except adrenal gland, harderian gland, liver, and small intestine; tissue:plasma ratio (AUClast), liver [6]: 11.4; tissue:plasma ratio (AUClast), small intestine (wall) [6]: 7.44; tissue distribution of drug and/or its metabolites ([6]; Group 3): broadly distributed and detected by quantitative whole body autoradiography in all tissues except the eye (lens)

Q: Which “presence in plasma or feces samples” value [7] does the source give for desmosterol sulfate here?
A: Its value is “not found”.
